“Also recorded” adds a separate entry of the source.
Legend:
[1] = at 20° C.; cited from earlier work
Cln3^Δex7-8 mice [2] = assay: Astrocytosis, GFAP immunohistochemistry in brain sections; type: in vivo, mouse
Procedure: (§1) Cln3^Δex7-8 mice were obtained from the Jackson Laboratory. Control (C57BL/6J) and Cln3^Δex7-8 mice were housed 3-4 per cage in a room with a 12-h light/12-h dark cycle. Food and water were provided ad libitum. All mice used in this study were analyzed at 8 and 12 months of age and were littermates produced by crossing heterozygous Cln3^Δex7-8 mice. Only males were used for this analysis. Investigators were blinded when analyzing the data, and no randomization was necessary.
(§2) For oral administration, Trehalose was dissolved in drinking water to a final concentration of 2% and changed twice a week. Trehalose-containing water was given to Cln3^Δex7-8 mice and WT mice by spontaneous oral administration starting at 21 days of age and continuing until the day the mice were sacrificed for neuropathology studies.
(§3) Miglustat was administered in mixture with the food pellet starting at 21 days of age and continuing until the day the mice were sacrificed for neuropathology studies. Miglustat food was prepared by TestDiet using the 5V5R rodent diet (LabDiet). Two concentrations were used: 1.2 g/Kg chow (indicated as “low concentration”) and 7.2 g/Kg chow (indicated as “high concentration”) and two separate groups of Cln3^Δex7-8 mice were fed with either diet. One additional group of Cln3^Δex7-8 l mice was fed with a combination of the low-concentration Miglustat food and 2% Trehalose water.
(§4) Twelve-month-old homozygous Cln3^Δex7-8 mice and age-matched controls (WT mice) were anaesthetized with isoflurane and transcardially perfused with PBS followed by 4% buffered paraformaldehyde in 0.1 M sodium phosphate buffer, pH 7.4. Brains were subsequently removed and postfixed overnight. Before sectioning, the brains were cryoprotected in a solution containing 30% sucrose in Tris-buffered saline (TBS: 50 mM Tris, pH 7.6). Consecutive 40 μm floating coronal sections were collected in 96-well plates. Series of sections were then stained with primary antisera against CD68 (AbD
(§5) Serotec, Cat. No. MCA1957), GFAP (DAKO, Cat. No. Z0334), Subunit C of mitochondrial ATP synthase (SCMAS; Abcam, Cat. No. ab181243), or cleaved caspase 3 (Asp175) (Cell Signaling, Cat. No. 9661S) followed by either rabbit anti-rat (VectorLab) or swine anti-rabbit (DAKO) secondary antibodies, and immunoreactivity detected with Vectastain ABC (avidin-biotin) kit (Vector) and diaminobenzidine as a chromogen.
(§6) Non-overlapping images were captured, on three consecutive sections, through each region of interest. All RGB images were captured via a live video camera (JVC, 3CCD, KY-F55B), mounted onto a Zeiss Axioplan microscope using a x 40 objective and saved as JPEGs. All parameters including lamp intensity, video camera set-up and calibration were maintained constant throughout image capturing. For quantification of storage and inflammation, images were analyzed using ImageJ analysis software (NIH), using an appropriate threshold that selected the foreground immunoreactivity above background. This threshold was then applied as a constant to all subsequent images analyzed per batch of animals and reagent used to determine the specific area of immunoreactivity for each antigen in each region. Data were plotted graphically as the mean percentage area of immunoreactivity per field ±s.e.m. for each region. For quantification of cell death, images were analyzed manually and scored for the presence of apoptotic nuclei. Data were plotted graphically as the mean number of apoptotic cells per field ±s.e.m. for each region. All analyses were performed blind to genotype and treatment.
[…] was also quantified by performing immunohistochemistry staining of brain sections of all test and control mice using anti-GFAP antibodies.

Cln3^Δex7-8 mice [3] = assay: Lysosomal storage in cerebellum (SCMAS staining); type: in vivo, mouse; details: 12 months of age
Procedure: as §1
For oral administration, Trehalose was dissolved in drinking water to a final concentration of 2% and changed twice a week. […]
as §5
Non-overlapping images were captured, on three consecutive sections, through each region of interest. […] For quantification of storage and inflammation, images were analyzed using ImageJ analysis software (NIH), using an appropriate threshold that selected the foreground immunoreactivity above background. […]

Cln3^Δex7-8 mice [4] = assay: Neuronal cell death, cleaved caspase-3 immunohistology in brain sections; type: in vivo, mouse
Procedure: as §1, §2, §3, §4, §5
as §6, with “All analyses were performed blind to genotype and treatment.” left out

Cln3^Δex7-8 mice [5] = assay: Microglial activation, CD68 immunohistochemistry in brain sections; type: in vivo, mouse; details: analyzed regions VPM/VPL, DLG, S1BF, V1 (FIG. 2A-D)
Procedure: as §1, §2, §3, §4, §5
as §6, with “Data were plotted graphically as the mean percentage area of immunoreactivity per field ±s.e.m. for each region.” left out, “Data were plotted graphically as the mean number of apoptotic cells per field ±s.e.m. for each region. All analyses were performed blind to genotype and treatment.” left out
(S1BF), the primary visual (V1) cortex, and the dorsolateral geniculate (DLG) (Pontikis et al., 2005). To quantify microglial activation, antibodies against the microglial marker CD68 were used. […]

[6] = Tissue concentrations of Trehalose (liver, brain) by LC-MS/MS; type: in vivo, mouse
Procedure: LC-MS/MS bioanalytical methodologies were developed for the analysis of Trehalose, Miglustat and glucose in mouse whole blood and brain.
Tissue samples were homogenized in 8 volumes of sterile distilled water and 1 volume of TCA (20% in water) to generate a final concentration of 2% TCA, homogenates were centrifuged at 13000 rpm for 15 min at 4° C. and the supernatant transferred to a fresh plate. At the time of analysis, 1 volume of acetonitrile containing an internal standard was added in order to match the initial chromatography conditions, samples were centrifuged at 4350 rpm for 10 min at ambient temperature, and the resultant supernatant transferred for analysis on the LC-MS/MS.
The purpose of this example was to compare the blood PK of unlabelled high doses of Trehalose after IV and PO administration, with and without Miglustat PO dosing. For the IV comparison, Trehalose was dosed as an IV bolus dose 15 min after PO dosing of Miglustat. For the PO comparison Miglustat was dosed simultaneously with Trehalose. Fasted male C57BL6/N mice were dosed as detailed in Table III: […]

[7] = 1 g/kg trehalose IV + 150 mg/kg miglustat PO, 180 min post-dose
[8] = 1 g/kg trehalose IV, 180 min post-dose

Compound: OC[C@H]1O[C@H](O[C@H]2O[C@H](CO)[C@@H](O)[C@H](O)[C@H]2O)[C@H](O)[C@@H](O)[C@@H]1O [Trehalose, α-D-glucopyranosyl α-D-glucopyranoside dihydrate]
- Solubility [1]: Trehalose: 68.9 g/100 g H2O at 20 °C
- astroglial activation (GFAP staining) in the VPM/VPL region (Cln3^Δex7-8 mice [2]; 12 months of age, oral, Miglustat even at low doses (FIG. 3E)): partially prevented
- astrocytosis (GFAP immunoreactivity) in the VPM/VPL (Cln3^Δex7-8 mice [2]; FIG. 3A): did not have any observable effects
- astrocytosis (GFAP immunoreactivity) in the DLG (Cln3^Δex7-8 mice [2]; FIG. 3B): prevented astrocytosis
- increased storage in the cerebellum (SCMAS staining) (Cln3^Δex7-8 mice [3]): partially reduces this increased storage
- cell death (cleaved CAS-3) in the VPM/VPL region (Cln3^Δex7-8 mice [4]; 12 months of age, oral, 2% Trehalose in drinking water, Miglustat in chow (FIG. 1E), dihydrate): partially prevented; also recorded: partially reduced
- programmed cell death (cleaved caspase-3 reactive cells) (Cln3^Δex7-8 mice [4]; regions analyzed: VPM/VPL, dLG, S1BF, V1 (FIGS. 1A-D), oral treatment): effective in abating programmed cell death
- microglial activation (CD68) (Cln3^Δex7-8 mice [5]): partially mitigated
- Concentration of Trehalose, Brain L [6, 7]: 10.8 ± 2.0 nmol/g
- Concentration of Trehalose, Brain R [6, 7]: 10.5 ± 1.7 nmol/g
- Concentration of Trehalose, Liver [6, 7]: 278.6 ± 96.6 nmol/g
- Concentration of Trehalose, Brain L [6, 8]: 6.9 ± 1.9 nmol/g
- Concentration of Trehalose, Brain R [6, 8]: 7.3 ± 0.9 nmol/g
- Concentration of Trehalose, Liver [6, 8]: 167.9 ± 24.6 nmol/g
- brain exposure of Trehalose ([6]; IV Trehalose in combination with oral Miglustat, 180 min post-dose): about 10 nmol/g
- brain exposure of Trehalose ([6]; IV Trehalose, 180 min post-dose): about 7 nmol/g
- brain exposure of Trehalose ([6]; PO Trehalose): 2.5 nmol/g

Source: patent publication US20230321064A1, “Products for Treating the JNCL Disease” (Beyond Batten Disease Foundation, priority 2020, published 2023)
